One data set concerns HCT116 p53^+/+. Description: SRB growth inhibition assay in HCT116 p53^+/+ colon carcinoma cells. Format: cell-based, human. As to the method: (§1) Tumor cells were plated at 5.0×10^3 cells/well in 96-well plates and incubated for 24 hours. Cells were then exposed to serial dilutions of SLMP53-1, CP-31398 or PRIMA-1 (from 1.85 to 150 μM). The effect of the compounds was analyzed following 48 hours incubation, using the sulforhodamine B (SRB) assay. The solvent DMSO corresponding to the maximum concentration used in these assays (0.025%) was included as control. The GI50 value, the concentration of compound that causes 50% growth inhibition, was calculated for the tested compounds. Results are the mean±S.E.M. of three independent experiments.

In a further data set the test system is MDA-MB-231 (p53R280K). Description: SRB growth inhibition assay in MDA-MB-231 breast cancer cells. The data set is classed as cell-based, human. To be noted: Homo sapiens, 48 hours incubation, mean±S.E.M. As to the method: as §1, with “7.5×10^3” for “5.0×10^3”, “incubation period,” for “incubation,”, “value, which is” for “value,”
Data set [1] deals with HCT116 p53^+/+ cells. In words: cell cycle analysis by flow cytometry (propidium iodide), HCT116 p53^+/+. Format: cell-based, human. To be noted: double GI50, 24 hours. As to the method: FIG. 3 illustrates the effect of SLMP53-1 on cell cycle progression of HCT116 p53^+/+ cells. Cell cycle phases were analyzed by flow cytometry using propidium iodide and quantified using ModFit LT software (Verity Software House Inc., Topsham, USA). Effect of compounds (double GI50) was analyzed after 24 hours treatment. Histograms represent one of two independent experiments; quantification of cell cycle phases represents the mean±S.E.M. of two independent experiments.
For orientation: A flow cytometer gives signals particle by particle.

Data set [2] concerns HCT116 p53^+/+ cells. Description: apoptosis by flow cytometry (FITC-Annexin V and propidium iodide), HCT116 p53^+/+. The note with it: GI50 and double GI50, 24 hours. The data set is classed as cell-based, human. As to the method:
Apoptosis was analyzed by flow cytometry using FITC-Annexin V and propidium iodide. The effect of compounds was analyzed after 24 hours treatment using the concentration of GI50 and double GI50. Histograms represent one of two independent experiments; quantification of cells in apoptosis represents the mean±S.E.M. of two independent experiments.

In data set [3] the test system is HCT116 p53^+/+ cells. In words: sensitization to etoposide and doxorubicin, SRB assay, HCT116 p53^+/+. Format: cell-based, human. Here is the method: FIG. 5 illustrates that SLMP53-1 sensitizes colon carcinoma tumor cells with wt p53 (HCT116 p53^+/+) to the effects of etoposide and doxorubicin. HCT116 p53^+/+ cells were treated for 48 hours with increasing concentrations of etoposide (0.38 to 3.00 μM) or doxorubicin (9.38 to 75.0 nM) in the presence of a very low concentration (between GI5 to GI10; 4 μM) of SLMP53-1 or DMSO only. The effect of the compounds on cell growth was analyzed following 48 hours incubation, using the sulforhodamine B (SRB) assay. Results are mean±SEM of three to four independent experiments.
It was also investigated if SLMP53-1 increased the sensitivity of HCT116 p53^+/+ cells to the effects of various concentrations of the conventional chemotherapeutic drugs, etoposide (0.38 to 3.00 μM) and doxorubicin (9.38 to 75 nM). For that, a low concentration of SLMP53-1 (approximately the GI5 to GI10 concentration; 4 μM; without significant anti-proliferative effect on tumor cells) was used.
Background: Sulforhodamine B stains cellular protein and so reports cell mass.

A further data set has as its target T1, mutant p53 R175H (Homo sapiens, UniProt P04637, R175H).
T1 construct: expressed in transfected cells
In words: reactivation of mutant p53 in yeast (growth, CFU), R175H. The data set is classed as cell-based. The note with it: 10 μM; yeast expressing R175H; 44 hours. Here is the method: FIG. 6 illustrates that SLMP53-1 reactivates mutant p53s R273H, R175H and R280K in yeast. Yeast cells expressing R273H, R280K, Y220C or R175H were incubated in selective medium with 10 μM of SLMP53-1, 10 μM of CP-31398 (for R273H), 10 μM of PRIMA-1 (for R175H and R280K), 50 μM of PhiKan 083 (for Y220C) or DMSO only, for 44 hours. CP-31398, PRIMA-1 and PhiKan 083 were used as positive controls. Results are plotted setting as 100% growth the number of CFU obtained in the presence of DMSO only.
It is also shown that SLMP53-1 can reactivate some mutant p53 forms, particularly R273H, R280K and R175H (FIG. 6).

The next data set deals with human lymphocytes. Description: cytokinesis-block micronucleus assay. The data set is classed as cell-based. Here is the method:
Concerning the genotoxicity assays, three concentrations (15.5, 7.25 and 1.55 μM) of SLMP53-1 were tested, in vitro, for potential genotoxicity to human lymphocytes. For that purpose, the cytokinesis-block micronucleus assay (an assay routinely used in mutagen/carcinogen screening programs) was used, which measures the ability of genotoxic agents to induce both chromosomal damage (clastogenic) and/or spindle dysfunction (aneugenic) effects.

Data set [4] in a line: apparent permeability coefficients. Format: in vitro ADME.
A further data set has as its system HCT116 p53^+/+ tumors. Description: xenograft mouse model, HCT116 p53^+/+ tumors. The data set is classed as in vivo, BALB/c mice. The note with it: four intraperitoneal injections of 50 mg/kg, vs vehicle, preliminary. Here is the method: FIG. 10 illustrates the antitumor activity of SLMP53-1 in vivo. BALB/c mice, 4-6 weeks old, were implanted subcutaneous xenografts using 1.5×10^6 HCT116 p53^+/+ or HCT116 p53^−/− cells. The treatment was initiated when palpable tumors were established (14 days after the cells were injected), and consisted in 4 intraperitoneal injections (2× per week) of vehicle (control) or 50 mg/kg of SLMP53-1. Xenografts were measured during 24 days. Relative tumor volumes were plotted for control and treated groups by dividing the average tumor volume for each data point by average starting tumor volume.
Currently, the toxicity and antitumor activity of SLMP53-1 are under study in vivo using xenograft mouse models. […] Because p53-null tumors were not suppressed, it was confirmed that SLMP53-1 inhibited the tumor growth in a wt p53-dependent manner.

Where [5] appears, read: HCT116 p53^+/+ vs HCT116 p53^−/−.

“Also recorded” adds a separate entry of the source.

The term GI50 denotes the concentration that inhibits growth by half. Low readings indicate greater sensitivity of the cells, high ones lower sensitivity of the cells. As to `C[C@]12OC[C@H](Cc3c[nH]c4ccccc34)N1C(=O)c1ccccc12` [SLMP53-1], the “GI50 in HCT116 p53^+/+ cells lower than in HCT116 p53^−/− cells” value in the data set on HCT116 p53^+/+ (setting [5]) worked out at 2 fold. Besides, in the data set with HCT116 p53^+/+ (setting [5]), the “p53 dependence of anti-proliferative effect” value was “p53-dependent anti-proliferative effect”. Further, the GI50 worked out at 15.5 ± 1.6 µM with HCT116 p53^+/+ (Homo sapiens, HCT-116, HCT116 p53^+/+, 48 hours incubation, SRB, mean±S.E.M.) and 16.6 ± 4.2 µM in the data set on MDA-MB-231 (p53R280K). In addition, the cell cycle progression entry in the data set with HCT116 p53^+/+ cells [1] is “G0/G1-phase cell arrest”. For the same molecule, the apoptosis entry with HCT116 p53^+/+ cells [2] was “induces early and late apoptosis; also recorded: apoptotic cell death”. In addition, in the data set with HCT116 p53^+/+ cells [3] (9.38 nM doxorubicin in the presence of 4 μM of SLMP53-1, HCT116 p53^+/+), the “decrease of tumor cell growth” value was determined as 15%. The etoposide/doxorubicin-induced growth inhibition result in the data set on HCT116 p53^+/+ cells [3] (4 μM SLMP53-1, etoposide 0.75 and 3.00 μM, doxorubicin 9.38, 37.5 and 75 nM, 48 hours) is on record as “increased”. On mutant p53 R175H, the yeast growth inhibition entry was “significant growth inhibition”. Besides, the “cytotoxic and genotoxic effects” value in the data set on human lymphocytes is “no cytotoxic and genotoxic effects were observed”. In addition, in the data set with human lymphocytes (15.5, 7.25 and 1.55 μM, human lymphocytes, in vitro), the “mutagenic potential (micronuclei frequency vs negative control)” value is listed as “does not possess mutagenic potential”. Besides, the apparent permeability coefficients result in data set [4] is recorded as “favorable”. The tumor growth result in the data set with HCT116 p53^+/+ tumors is on record as “considerably suppressed”.

The record behind these values is patent US9732091B2, “Tryptophanol-derived oxazoloisoindolinones: small-molecule P53 activators” (UNIVERSIDADE DO PORTO, priority 2013, dated 2017).
